Results reported in US10532085B2, “Methods for increasing intracellular activity of Hsp70” (Orphazyme A/S, priority 2010, dated 2020).

What was measured:
U-2-OS cells = assay: Lysosomal integrity upon photo-oxidation (acridine orange and blue light); assay type: cell-based, Human; conditions: recombinant proteins 300 nM, 24 h
Description: FIG. 2: Lysosomal Hsp70 stabilizes lysosomal membranes. (a) Representative confocal images of U-2-OS cells incubated with 300 nM rHsp70-AF488 (green) for 24 h, fixed and stained for lysosomal integral membrane protein-1 (LIMP-1; red). For co-localization with other organelle markers see FIG. 3. (b) U-2-OS cells were incubated with 300 nM rHsp70-AF488 for 24 h before quantification of rHsp70-AF488 in membranes (memb.) and supernatant (sup.) obtained by repeated freeze/thaw cycles and centrifugation the light membrane fraction (LMF). […] (c) Representative still images of U-2-OS cells exposed to photo-oxidation (acridine orange and blue light). The loss of lysosomal integrity is visualized by the loss of red and increase in green staining. (d and e) U-2-OS cells were incubated with indicated recombinant proteins (300 nM) for 24 h, and analyzed for lysosomal integrity upon photo-oxidation. When indicated, cells were treated with indicated siRNAs for 48 h prior to the addition of recombinant proteins (e). The values represent means±SD (standard deviation) for three (d) or five (e) independent experiments. Representative immunoblots of indicated proteins from U-2-OS cells left untreated or treated with control or Hsp70 siRNAs are shown on the right. Scale bars: 20 μm (a and c).
WT- and Hsp70-MEFs were generated, immortalized and maintained as described in the art. Human NPDA fibroblasts (83/24) originate from a skin biopsy of a patient with hepatosplenomegaly. Recombinant proteins were generated using the pET-16b vector system and Ni^2+-affinity-purification (Novagen), and labeled with Alexa Fluor 488 according to manufacturers protocol (Molecular Probes). To analyze the lysosomal integrity, we developed a real time imaging method of cells stained with acridine orange, a metachromatic weak base that accumulates in the acidic compartment of the cells staining them red and sensitizing them to photo-oxidation. The photo-oxidation-induced loss of the lysosomal pH-gradient and leakage of acridine orange to the cytosol from individual lysosomes was quantified visually as “loss of red dots” in U2-O—S cells and as a decrease in red and an increase in green fluorescence by Zeiss LSM DUO Software in fibroblasts. The total and cytoplasmic (digitonin-extracted) cathepsin activities were measured in digitonin-treated samples using zFR-AFC (Enzyme System Products) probe as described in the art. The tryptophan fluorescence spectra and liposome 90° light scattering were analyzed in a HEPES buffer (20 mM HEPES, 0.1 mM EDTA, pH as indicated) essentially as described in the art. Surface plasmon resonance measurements were performed with immobilized LUVs using a BIAcore 2000 system as described in the art. Hsp70 siRNA (5′-[…]-3′) and a […] were transfected with Oligofectamine (Invitrogen). Immunodetection was performed with standard protocols. Apoptosis-like cell death and lysosomal membrane permeabilization were analyzed essentially as described in the art. ASM activity was analyzed by Amplex Red Sphingomyelinase Assay Kit (A12220) from Molecular Probes with modifications described in the art. Statistical analysis was performed using a two-tailed, paired Student's T-test and all groups of data were tested for the comparability of their variances using an F-test.
Sub-confluent cells incubated with 2 μg/ml acridine orange for 15 min at 37° C. were washed, irradiated and analyzed in Hanks balanced salt solution complemented with 3% fetal calf serum. Cells for single cell imaging were selected from 8 pre-defined areas of each well in transmitted light-mode after which the same cells were immediately visualized and exposed to blue light from USH102 100W mercury arc burner (Ushio electric) installed in a U-ULS100HG housing (Olympus) for 20 sec. Fluorescence microscopy was performed on Olympus IX-70 inverted microscope with a LCPlanF1 ×20 objective with NA=0.40. […]

[1] = Surface plasmon resonance (BIAcore) BMP interaction; assay type: binding; conditions: acidic pH
Text: Thus, we investigated the interaction of Hsp70 with palmitoyl-oleoyl-phosphatidylcholine (POPC) large unilamellar vesicles (LUVs) containing various membrane-associated anionic lipids, i.e. palmitoyl-oleoyl-phosphatidylserine (POPS; primarily in plasma membrane), cardiolipin (primarily mitochondrial) and BMP (primarily in late endosomes/lysosomes). Taking into account the increasingly acidic milieu of the endo-lysosomal compartment upon maturation to lysosomes, we compared the protein-lipid interactions in neutral (pH 7.4) and acidic (pH 6.0) conditions. […] As reported earlier for POPS, all negatively charged lipids enhanced the binding of rHsp70 to the liposomes at neutral pH approximately 4-fold irrespective of the charge density on the liposome surface (ranging from −1 to −2).
(§1) In order to investigate which part of the Hsp70 protein is responsible for the BMP binding, we measured the fluorescence shift of the tryptophans upon docking of rHsp70 and its mutants into BMP-containing liposomes. […] Next, we substituted the two tryptophans in Hsp70 with phenylalanines (W90F and W580F) and studied which tryptophan is responsible for the fluorescence shift induced by lipid binding. […] A more quantitative BIAcore analysis of the BMP—rHsp70 interaction confirmed that Hsp70 interacted with BMP mainly through its ATPase domain. […]

[2] = Tryptophan fluorescence shift upon docking into BMP-containing liposomes; assay type: binding
Text: In order to investigate which part of the Hsp70 protein is responsible for the BMP binding, we measured the fluorescence shift of the tryptophans upon docking of rHsp70 and its mutants into BMP-containing liposomes. […] Next, we substituted the two tryptophans in Hsp70 with phenylalanines (W90F and W580F) and studied which tryptophan is responsible for the fluorescence shift induced by lipid binding. […] A more quantitative BIAcore analysis of the BMP—rHsp70 interaction confirmed that Hsp70 interacted with BMP mainly through its ATPase domain. […] Thus, the rHsp70-W90F mutant provided us with an invaluable tool to further test whether the direct interaction between Hsp70 and BMP endows Hsp70 with its lysosome protective attributes. […] Importantly, mutant Hsp70 proteins were endocytosed essentially as effectively as the wild type Hsp70.
The tryptophan fluorescence spectra (RFI) and liposome 90° light scattering (RSI) were analyzed in a HEPES buffer (20 mM HEPES, 0.1 mM EDTA, pH 7.4 or 6.0 as indicated) employing LUVs consisting of indicated lipids essentially as described in the art. For the RFI, LUVs were added in 10 μM aliquots and spectra recorded after a 20 min stabilization period. For the RSI, recombinant proteins were added in 0.12 nmol aliquots.

Hsp70 chaperone = molecular target: T1, Hsp70 chaperone (Homo sapiens, UniProt P0DMV8, W90F); assay: Structural and functional aspects of the Hsp70 chaperone (circular dichroism, luciferase folding, ATP hydrolysis); assay type: biochemical; conditions: far- and near-UV circular dichroism
T1 construct: made in house

[3] = test system: cisplatin-induced lysosomal cell death; assay: Cisplatin-induced lysosomal cell death; assay type: cell-based
Text: Thus, we investigated the interaction of Hsp70 with palmitoyl-oleoyl-phosphatidylcholine (POPC) large unilamellar vesicles (LUVs) containing various membrane-associated anionic lipids, i.e. palmitoyl-oleoyl-phosphatidylserine (POPS; primarily in plasma membrane), cardiolipin (primarily mitochondrial) and BMP (primarily in late endosomes/lysosomes). Taking into account the increasingly acidic milieu of the endo-lysosomal compartment upon maturation to lysosomes, we compared the protein-lipid interactions in neutral (pH 7.4) and acidic (pH 6.0) conditions. […]
as §1
Cell density was assessed by the 3-(4,5-dimethylthiazole-2-y)-2,5-[…] (MTT, SIGMA-Aldrich) reduction assay essentially as described in the art. […] For each experiment a minimum of eight randomly chosen areas were counted.

MEFs [4] = assay type: cell-based
Description: (§2) BMP binds ASM with high affinity and stimulates its ability to hydrolyze sphingomyelin to ceramide and phosphorylcholine. […] In order to test whether ASM is responsible for the lysosome stabilizing effect we treated the cells with desipramine, a well characterized pharmacological ASM inhibitor. […] It should be noted that akin to rHsp70, also rASM localized to the lysosomes.
Cell density was assessed by the 3-(4,5-dimethylthiazole-2-y)-2,5-[…] (MTT, SIGMA-Aldrich) reduction assay essentially as described in the art. Apoptosis-like cell death was assessed by staining the cells with 0.05 μg/ml Hoechst 33342 (Molecular Probes) and counting cells with condensed nuclei in an inverted Olympus IX-70 fluorescent Microscope (Filter U-MWU 330-385 nm). For each experiment a minimum of eight randomly chosen areas were counted.

MEFs [5] = assay type: cell-based; remark: listed apart in the source
Description: as §2
The total and cytoplasmic (digitonin-extracted) cathepsin activities were measured in digitonin-treated samples using zFR-AFC (Enzyme System Products) probe as described in the art.

Hsp70-MEFs = assay: Lysosomal membrane integrity upon photo-oxidation in Hsp70-MEFs; assay type: cell-based, murine; conditions: subtoxic concentration
Description: as §2
(§3) Sub-confluent cells incubated with 2 μg/ml acridine orange for 15 min at 37° C. were washed, irradiated and analyzed in Hanks balanced salt solution complemented with 3% fetal calf serum. Cells for single cell imaging were selected from 8 pre-defined areas of each well in transmitted light-mode after which the same cells were immediately visualized and exposed to blue light from USH102 100W mercury arc burner (Ushio electric) installed in a U-ULS100HG housing (Olympus) for 20 sec. Fluorescence microscopy was performed on Olympus IX-70 inverted microscope with a LCPlanF1 ×20 objective with NA=0.40. Loss of lysosomal pH gradient was quantified by counting the loss of intense red staining. A more elaborate method for assaying lysosomal integrity was developed to handle the larger lysosomal compartment of the various fibroblasts used in this study. […] The resulting timelapse movies where subsequently analysed by the integrated Zeiss LSM DUO software.

ASM = ASM activity in NPDA patient cells; assay type: cell-based, Human; conditions: loading the lysosomes of patient cells
Text: as §2
WT- and Hsp70-MEFs were generated, immortalized and maintained as described in the art. Human NPDA fibroblasts (83/24) originate from a skin biopsy of a patient with hepatosplenomegaly. […] The photo-oxidation-induced loss of the lysosomal pH-gradient and leakage of acridine orange to the cytosol from individual lysosomes was quantified visually as “loss of red dots” in U2-O—S cells and as a decrease in red and an increase in green fluorescence by Zeiss LSM DUO Software in fibroblasts. The total and cytoplasmic (digitonin-extracted) cathepsin activities were measured in digitonin-treated samples using zFR-AFC (Enzyme System Products) probe as described in the art. The tryptophan fluorescence spectra and liposome 90° light scattering were analyzed in a HEPES buffer (20 mM HEPES, 0.1 mM EDTA, pH as indicated) essentially as described in the art. […] Apoptosis-like cell death and lysosomal membrane permeabilization were analyzed essentially as described in the art. […]

NPDA cells [6] = assay: Lysosomal stability in NPDA cells; assay type: cell-based, Human
Description: as §2, §3

NPDA cells [7] = assay: Volume of the lysosomal compartment in NPDA cells; assay type: cell-based, Human
Text: as §2
Primary antibodies used included mouse monoclonal antibodies against Hsp70 (2H9; kindly provided by Boris Margulis, Russian Academy of Sciences, St. Petersburg, Russia), glyceraldehyde-3-phosphate dehydrogenase (GAPDH; Biogenesis), BMP (6C4), lysosomal integral membrane protein-1 (H5C6; developed by J. Thomas August and James E. K. Hildreth and obtained from the Developmental Studies Hybridoma Bank developed under the auspices of the NICHD and maintained by The University of Iowa, Department of Biological Sciences, Iowa City, USA). Proteins separated by 10% SDS-PAGE and transferred to a nitrocellulose membrane were detected by using indicated primary antibodies, appropriate peroxidase-conjugated secondary antibodies from Dako, ECL Western blotting reagents (Amersham), and Luminescent Image Reader (LAS-1000Plus, Fujifilm). For immunocytochemistry Alexa […] or Alexa Fluor®-488-conjugated secondary antibodies were used. […] Fluorescence images were taken using a Zeiss Axiovert 100M laser scanning microscope. […]

T1 sequence (P0DMV8 whole entry W90F): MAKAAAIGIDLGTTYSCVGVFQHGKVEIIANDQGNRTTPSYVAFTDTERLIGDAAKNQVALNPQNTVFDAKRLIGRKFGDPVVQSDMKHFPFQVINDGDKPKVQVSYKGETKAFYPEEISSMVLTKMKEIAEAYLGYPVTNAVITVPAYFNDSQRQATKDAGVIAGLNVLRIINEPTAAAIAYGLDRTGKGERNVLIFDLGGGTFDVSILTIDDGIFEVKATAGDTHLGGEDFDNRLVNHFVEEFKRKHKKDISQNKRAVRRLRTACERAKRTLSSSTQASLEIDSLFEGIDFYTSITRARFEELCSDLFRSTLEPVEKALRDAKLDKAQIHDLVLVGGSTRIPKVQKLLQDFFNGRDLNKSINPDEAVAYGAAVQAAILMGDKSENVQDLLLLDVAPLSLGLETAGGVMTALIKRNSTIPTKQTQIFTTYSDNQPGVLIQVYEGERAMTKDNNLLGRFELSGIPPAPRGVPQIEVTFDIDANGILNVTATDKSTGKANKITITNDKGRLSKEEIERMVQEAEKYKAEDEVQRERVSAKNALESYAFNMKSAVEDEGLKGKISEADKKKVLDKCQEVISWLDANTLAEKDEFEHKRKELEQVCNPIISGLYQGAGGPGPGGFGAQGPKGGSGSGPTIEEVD

Molecule: Hsc70: recombinant Hsc70, 86% identical to the amino acid sequence of Hsp70
- protection of lysosomes against photo-oxidation (lysosomal stabilization) (U-2-OS cells): no lysosomal stabilization

Molecule: rHsp70-W90F: rHsp70 mutant with tryptophan 90 substituted with phenylalanine
- protection of lysosomes against photo-oxidation (lysosomal stabilization) (U-2-OS cells): completely lost its ability to protect
- interaction with BMP (BIAcore) [1]: specifically abolished the interaction between rHsp70 and BMP
- relative peak fluorescence intensity (tryptophan fluorescence shift) [2]: reduction of the signal
- structural and functional aspects of the chaperone (Hsp70 chaperone): retaining the structural (folding as analyzed by far- and near-UV circular dichroism) and functional (luciferase folding and ATP hydrolysis) aspects
- protection of cells against cisplatin-induced lysosomal cell death [3]: completely lost its ability to protect

Molecule: Hsp70-2: recombinant Hsp70-2, 84% identical to the amino acid sequence of Hsp70
- protection of lysosomes against photo-oxidation (lysosomal stabilization) (U-2-OS cells): no lysosomal stabilization

Molecule: rHsp70-W580F: rHsp70 mutant with tryptophan 580 substituted with phenylalanine
- protection of lysosomes against photo-oxidation (lysosomal stabilization) (U-2-OS cells): same protective effect as the wild-type protein
- protection of cells against cisplatin-induced lysosomal cell death [3]: same protective effect as the wild-type protein

Molecule: CNCCCN1c2ccccc2CCc2ccccc21 [Desipramine, desipramine]
- viability of MEFs (MEFs [4]): reduced the viability of MEFs in a dose-dependent manner
- permeabilization of lysosomes (MEFs [5]): massive permeabilization of lysosomes
- lysosomal stress resistance of Hsp70-MEFs upon photo-oxidation (Hsp70-MEFs): reverted the lysosomal stress resistance of Hsp70-MEFs to the level of WT-MEFs

B1: rASM: recombinant acid sphingomyelinase (protein, UniProt P17405 47-631, looked up)
Sphingomyelin …: LALSDSRVLWAPAEAHPLSPQGHPARLHRIVPRLRDVFGWGNLTCPICKGLFTAINLGLKKEPNVARVGSVAIKLCNLLKIAPPAVCQSIVHLFEDDMVEVWRRSVLSPSEACGLLLGSTCGHWDIFSSWNISLPTVPKPPPKPPSPPAPGAPVSRILFLTDLHWDHDYLEGTDPDCADPLCCRRGSGLPPASRPGAGYWGEYSKCDLPLRTLESLLSGLGPAGPFDMVYWTGDIPAHDVWHQTRQDQLRALTTVTALVRKFLGPVPVYPAVGNHESTPVNSFPPPFIEGNHSSRWLYEAMAKAWEPWLPAEALRTLRIGGFYALSPYPGLRLISLNMNFCSRENFWLLINSTDPAGQLQWLVGELQAAEDRGDKVHIIGHIPPGHCLKSWSWNYYRIVARYENTLAAQFFGHTHVDEFEVFYDEETLSRPLAVAFLAPSATTYIGLNPGYRVYQIDGNYSGSSHVVLDHETYILNLTQANIPGAIPHWQLLYRARETYGLPNTLPTAWHNLVYRMRGDMQLFQTFWFLYHKGHPPSEPCGTPCRLATLCAQLSARADSPALCRHLMPDGSLPEAQSLWPRPLFC
- ASM activity in NPDA patient cells (ASM): increased ASM activity
- stabilization of lysosomes in NPDA cells (NPDA cells [6]): stabilize the lysosomes
- volume of the enlarged lysosomal compartment in NPDA cells (NPDA cells [7]): normalize the volume
